For 13 molecules, IC50 and inhibition results are on record in patent publication US9828379B2 (priority 2013, dated 2017).

For assay [1], the target named is T1, ABHD6 (Mus musculus, UniProt Q8R2Y0).
T1 sequence (Q8R2Y0 1-336): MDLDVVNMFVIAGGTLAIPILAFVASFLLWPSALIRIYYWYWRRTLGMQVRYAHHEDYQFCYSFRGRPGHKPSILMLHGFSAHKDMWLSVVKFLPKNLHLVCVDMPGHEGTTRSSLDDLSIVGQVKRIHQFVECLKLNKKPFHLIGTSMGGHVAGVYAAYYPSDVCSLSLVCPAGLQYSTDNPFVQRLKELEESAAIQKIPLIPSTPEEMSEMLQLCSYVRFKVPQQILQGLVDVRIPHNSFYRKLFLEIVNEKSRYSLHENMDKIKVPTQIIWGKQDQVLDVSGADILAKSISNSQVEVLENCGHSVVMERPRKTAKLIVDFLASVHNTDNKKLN
In words: biochemical. To be noted: in vitro competitive ABPP.

The target of assay [2] is T2, FAAH (Mus musculus, UniProt O08914).
T2 sequence (O08914 1-579): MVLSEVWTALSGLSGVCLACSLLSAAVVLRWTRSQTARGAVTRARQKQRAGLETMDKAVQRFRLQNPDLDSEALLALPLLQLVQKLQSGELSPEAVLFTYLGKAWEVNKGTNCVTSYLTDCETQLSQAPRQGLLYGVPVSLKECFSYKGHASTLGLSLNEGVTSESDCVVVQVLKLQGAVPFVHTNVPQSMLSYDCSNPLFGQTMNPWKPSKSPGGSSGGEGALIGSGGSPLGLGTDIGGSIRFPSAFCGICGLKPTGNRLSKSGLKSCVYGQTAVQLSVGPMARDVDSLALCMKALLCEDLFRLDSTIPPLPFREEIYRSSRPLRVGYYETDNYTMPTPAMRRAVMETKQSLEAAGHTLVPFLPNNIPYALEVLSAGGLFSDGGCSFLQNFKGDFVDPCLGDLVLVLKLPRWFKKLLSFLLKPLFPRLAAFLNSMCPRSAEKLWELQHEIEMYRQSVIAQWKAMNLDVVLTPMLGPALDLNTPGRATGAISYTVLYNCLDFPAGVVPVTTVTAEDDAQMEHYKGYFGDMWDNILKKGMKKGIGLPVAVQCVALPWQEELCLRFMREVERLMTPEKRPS
Kind of assay: biochemical. The settings on record: in vitro competitive ABPP.

Assay [3] addresses T3, MAGL (Mus musculus, UniProt O35678).
T3 sequence (O35678 1-303): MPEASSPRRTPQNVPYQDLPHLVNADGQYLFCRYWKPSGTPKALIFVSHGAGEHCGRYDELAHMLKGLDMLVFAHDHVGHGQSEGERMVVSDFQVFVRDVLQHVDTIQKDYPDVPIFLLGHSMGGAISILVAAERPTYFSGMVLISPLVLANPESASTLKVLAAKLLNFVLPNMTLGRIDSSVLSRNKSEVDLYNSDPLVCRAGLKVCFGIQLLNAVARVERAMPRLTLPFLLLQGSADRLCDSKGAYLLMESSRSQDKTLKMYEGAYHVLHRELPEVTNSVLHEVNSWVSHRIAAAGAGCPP
Kind of assay: biochemical. The settings on record: mouse; in vitro competitive ABPP; read-out: Mouse (IC50 value, nM) MAGL.

Assay [4] has as its target T1, ABHD6. In words: In vitro competitive activity-based protein profiling (Table 2, % inhibition at 1 μM). In kind it is biochemical. The settings on record: read-out: % Inhibition at 1 μM ABHD6.
Assay [5] deals with T2, FAAH. Described as above. The settings on record: read-out: % Inhibition at 1 μM FAAH. The format is biochemical.
Assay [6] deals with T3, MAGL. The description is as above. In kind it is biochemical. To be noted: read-out: % Inhibition at 1 μM MAGL. The procedure:
After 30 min, FP—Rh (1.0 μL, 50 μM in DMSO) was added and the mixture was incubated for another 30 min at 37° C. Reactions were quenched with SDS loading buffer (50 μL-4×) and run on SDS-PAGE.
Cell lysates were diluted with mock proteomes for use in competitive ABPP experiments.

Where only a bound is given, the exact number is not on record here.

Consider `O=C(OC(C(F)(F)F)C(F)(F)F)N1CC2CN(Cc3ccc(N4CCOCC4)cc3F)CC2C1` (stereo not drawn) [Example 1, 1,1,1,3,3,3-Hexafluoropropan-2-yl 5-(2-fluoro-4-morpholinobenzyl)hexahydropyrrolo[3,4-c]pyrrole-2(1H)-carboxylate], for which the IC50 (commonly the concentration that gives 50% inhibition) is 1000 to 10000 nM at ABHD6 [1], 100 to 1000 nM on FAAH [2] and < 100 nM at MAGL [3]. For the same molecule, the inhibition – broadly, the drop in the measured response relative to a control, in per cent – at 1 µM was < 25% on ABHD6 [4], 25 to 75% on FAAH [5] and > 75% on MAGL [6].

Turning to `O=C(OC(C(F)(F)F)C(F)(F)F)N1CC2CN(Cc3ccc(C(F)F)cc3N3CCCC3)CC2C1` (stereo not drawn) [Example 205, 1,1,1,3,3,3-hexafluoropropan-2-yl 5-(4-(difluoromethyl)-2-(pyrrolidin-1-yl)benzyl)hexahydropyrrolo[3,4-c]pyrrole-2(1H)-carboxylate], the values for the half-maximal inhibitory concentration (IC50) on ABHD6 [1], at FAAH [2] and at MAGL [3] were 1000 to 10000 nM, 1000 to 10000 nM and < 100 nM, respectively. For the same molecule, the inhibition at 1 µM on ABHD6 [4] was < 25%; on FAAH [5] it was < 25%; at MAGL [6], > 75%.

Regarding `O=C(ON1C(=O)CCC1=O)N1CC2CN(Cc3ccccc3-c3ccccc3)CC2C1` (stereo not drawn) [Example 87, 2,5-Dioxopyrrolidin-1-yl-5-[(2-phenylphenyl)methyl]-octahydropyrrolo[3,4-c]pyrrole-2-carboxylate], the IC50 at ABHD6 [1] was 1000 to 10000 nM; at FAAH [2] it was 100 to 1000 nM; at MAGL [3], 100 to 1000 nM. For the same molecule, the figures for the inhibition at 1 µM at ABHD6 [4], on FAAH [5] and on MAGL [6] were 25 to 75%, 25 to 75% and > 75%, respectively.

For `C#CCNC(=O)c1nn(CC)cc1CN1CC2CN(C(=O)OC(C(F)(F)F)C(F)(F)F)CC2C1` (stereo not drawn) [Example 178, 1,1,1,3,3,3-hexafluoropropan-2-yl 5-((1-ethyl-3-(prop-2-yn-1-ylcarbamoyl)-1H-pyrazol-4-yl)methyl)hexahydropyrrolo[3,4-c]pyrrole-2(1H)-carboxylate], the results for the half-maximal inhibitory concentration (IC50) at ABHD6 [1], on FAAH [2] and at MAGL [3] were 1000 to 10000 nM, > 10000 nM and 100 to 1000 nM, respectively. The inhibition at 1 µM at ABHD6 [4] is < 25%; on FAAH [5] it was < 25%; on MAGL [6] it was > 75%.

For `CC(C)c1ccc(CN2CC3CN(C(=O)OC(C(F)(F)F)C(F)(F)F)CC3C2)c(N2CCCC2)c1` (stereo not drawn) [Example 23, 1,1,1,3,3,3-Hexafluoropropan-2-yl 5-[[4-(propan-2-yl)-2-(pyrrolidin-1-yl)phenyl]methyl]-octahydropyrrolo[3,4-c]pyrrole-2-carboxylate], the IC50 on ABHD6 [1] is 1000 to 10000 nM; at FAAH [2] it was 1000 to 10000 nM; at MAGL [3], 100 to 1000 nM. In addition, the inhibition at 1 µM was < 25% on ABHD6 [4], < 25% at FAAH [5] and > 75% on MAGL [6].

With `CC(C)(C)c1cc(CN2CC3CN(C(=O)OC(C(F)(F)F)C(F)(F)F)CC3C2)n(C2CCOCC2)n1` (stereo not drawn) [Example 157, 1,1,1,3,3,3-hexafluoropropan-2-yl 5-[[3-tert-butyl-1-(oxan-4-yl)-1H-pyrazol-5-yl]methyl]-octahydropyrrolo[3,4-c]pyrrole-2-carboxylate], the concentration for half-maximal inhibition (IC50) on ABHD6 [1] was 1000 to 10000 nM; on FAAH [2] it was > 10000 nM; on MAGL [3] it was 100 to 1000 nM. The inhibition at 1 µM was < 25% at ABHD6 [4], < 25% at FAAH [5] and > 75% on MAGL [6].

On to `O=C(OC(C(F)(F)F)C(F)(F)F)N1CC2CN(Cc3ccc(Cl)cc3N3CCn4ncnc4C3)CC2C1` (stereo not drawn) [Example 34, 1,1,1,3,3,3-Hexafluoropropan-2-yl 5-(4-chloro-2-(5,6-dihydro-[1,2,4]triazolo[1,5-a]pyrazin-7(8H)-yl)benzyl)-hexahydropyrrolo[3,4-c]pyrrole-2(1H)-carboxylate], for which the IC50 at ABHD6 [1] was 100 to 1000 nM; on FAAH [2], 1000 to 10000 nM; on MAGL [3], < 100 nM. Moreover, the values for the inhibition at 1 µM at ABHD6 [4], at FAAH [5] and on MAGL [6] were 25 to 75%, 25 to 75% and > 75%, respectively.

Turning to `Cc1cc(CN2CC3CN(C(=O)OC(C(F)(F)F)C(F)(F)F)CC3C2)n(C(C)C)n1` (stereo not drawn) [Example 59, 1,1,1,3,3,3-Hexafluoropropan-2-yl 5-[[3-methyl-1-(propan-2-yl)-1H-pyrazol-5-yl]methyl]-octahydropyrrolo[3,4-c]pyrrole-2-carboxylate], the results for the IC50 on ABHD6 [1], at FAAH [2] and at MAGL [3] were 1000 to 10000 nM, 1000 to 10000 nM and 100 to 1000 nM, respectively. Also, the inhibition at 1 µM on ABHD6 [4] is 25 to 75%; on FAAH [5] it was 25 to 75%; at MAGL [6] it was > 75%.

As for `O=C(OC(C(F)(F)F)C(F)(F)F)N1CC2CN(Cc3cccc(Cl)c3N3CCOCC3)CC2C1` (stereo not drawn) [Example 44, 1,1,1,3,3,3-Hexafluoropropan-2-yl 5-[[3-chloro-2-(morpholin-4-yl)phenyl]methyl]-octahydropyrrolo[3,4-c]pyrrole-2-carboxylate], the IC50 at ABHD6 [1] was 1000 to 10000 nM; at FAAH [2] it was 1000 to 10000 nM; on MAGL [3] it was < 100 nM. Further, the inhibition at 1 µM at ABHD6 [4] is < 25%; on FAAH [5], < 25%; at MAGL [6] it was > 75%.

For the molecule `Cc1c(CN2CC3CN(C(=O)ON4C(=O)CCC4=O)CC3C2)cccc1N1CCCCC1` (stereo not drawn) [Example 104, 2,5-Dioxopyrrolidin-1-yl 5-[[2-methyl-3-(piperidin-1-yl)phenyl]methyl]-octahydropyrrolo[3,4-c]pyrrole-2-carboxylate], the half-maximal inhibitory concentration (IC50) was 1000 to 10000 nM at ABHD6 [1], 100 to 1000 nM at FAAH [2] and < 100 nM on MAGL [3]. In addition, the inhibition at 1 µM was < 25% on ABHD6 [4], > 75% at FAAH [5] and > 75% at MAGL [6].

On to `CC1COCCN1c1ccc(CN2CC3CN(C(=O)OC(C(F)(F)F)C(F)(F)F)CC3C2)c(Cl)c1` (stereo not drawn) [Example 27, 1,1,1,3,3,3-Hexafluoropropan-2-yl 5-[[2-chloro-4-(3-methylmorpholin-4-yl)phenyl]methyl]-octahydropyrrolo[3,4-c]pyrrole-2-carboxylate], for which the concentration for half-maximal inhibition (IC50) is 1000 to 10000 nM at ABHD6 [1], 1000 to 10000 nM at FAAH [2] and < 100 nM on MAGL [3]. Further, the results for the inhibition at 1 µM at ABHD6 [4], on FAAH [5] and at MAGL [6] were < 25%, 25 to 75% and > 75%, respectively.

As for `Cc1c(CN2CC3CN(C(=O)OC(C(F)(F)F)C(F)(F)F)CC3C2)cccc1C(=O)N1CCCC1` (stereo not drawn) [Example 186, 1,1,1,3,3,3-hexafluoropropan-2-yl 5-(2-methyl-3-(pyrrolidine-1-carbonyl)benzyl)hexahydropyrrolo[3,4-c]pyrrole-2(1H)-carboxylate], the half-inhibitory concentration (IC50) is 1000 to 10000 nM on ABHD6 [1], 1000 to 10000 nM on FAAH [2] and < 100 nM at MAGL [3]. For the same molecule, the inhibition at 1 µM on ABHD6 [4] was 25 to 75%; at FAAH [5] it was < 25%; on MAGL [6] it was > 75%.

Consider `CCn1cc(CN2CC3CN(C(=O)OC(C(F)(F)F)C(F)(F)F)CC3C2)c(C(=O)NC2CC2)n1` (stereo not drawn) [Example 77, 1,1,1,3,3,3-Hexafluoropropan-2-yl 5-((3-(cyclopropylcarbamoyl)-1-ethyl-1H-pyrazol-4-yl)methyl)hexahydropyrrolo[3,4-c]pyrrole-2(1H)-carboxylate], for which the 50% inhibitory concentration (IC50) on ABHD6 [1] is 1000 to 10000 nM; on FAAH [2], > 10000 nM; on MAGL [3] it was 100 to 1000 nM. In addition, the inhibition at 1 µM on ABHD6 [4] is < 25%; at FAAH [5] it was < 25%; on MAGL [6], > 75%.
